Laboratory results published in patent US20190110990A1, “LIPOPROTEINS CONTAINING PLATINUM COMPLEXES FOR THE TREATMENT OF CANCER” (UNIVERSITE DE BOURGOGNE, priority 2016, published 2019).

Columns and labels:
[1] = system: human macrophages; assay: ROS production by M2 macrophages (DHE labelling, flow cytometry); format: cell-based; conditions: 2 hours, final cisplatin concentration 25 μM, basal (CTL) 8.2%
Description: After 7 days of culture in human M-CSF from Miltenyi, Biotec. (Macrophage Colony-Stimulating Factor) at 100 ng/ml, human macrophages were differentiated, from monocytes, into M2 alternative phenotype macrophages (protumoral). […] The production of reactive oxygen species (ROS, representative of an anti-tumour action) by the macrophages was then determined by flow cytometry after labelling with Dihydroethidium (DHE). […] Furthermore, the native HDLs, native LDLs and the LDL-Cis had no effect on ROS production by the macrophages.
The same protocol was repeated so as to compare the effect between the HDL-Cis and the oxidised LDL lipoproteins charged with cisplatin (LDLox+Cis) (see FIG. 2C). […] The oxidised LDLs were obtained by incubating native
LDLs (cholesterol, 1 mM) for 24 hours at 37° C. in the presence of copper sulphate (5 μM). After oxidation, the oxidised LDLs are dialysed in a PBS buffer.

[2] = system: SW480 colorectal cancer lines; assay: Cell viability of SW480 cells by flow cytometry; format: cell-based; conditions: SW480, 48 hours, final cisplatin concentration 25 μM
Description: The cell viability was then evaluated by flow cytometry.

## N.N.[Cl][Pt][Cl] [non-vectorised cisplatin, Cis-diamine-dichloro-platinum (II)]
[1]
  ROS production / macrophage activation: 18.2%
[2]
  cancer cell mortality: 41%
